The results in this text go back to patent US9990464B1, “Label-free biomolecular interaction analysis using a rapid analyte dispersion injection method” (SENSIQ TECHNOLOGIES, INC., priority 2012, dated 2018).

The data set in a line: apparent (effective) diffusion coefficient from internal standard-based calibration of the dispersion model. It is filed as physicochemical. The note with it: coiled tube, 50 μL/min, 25° C.; sucrose internal standard and Equation 1 calibration by Mr. As for the experimental part:
In one example, the rapid dispersion injection method is performed in a biosensor comprising a flow channel conduit that is in fluid connection with a flow cell conduit downstream from the analyte sample injection point. The flow channel conduit is tightly coiled around a vertically-oriented support and is preferably filled with a carrier fluid free of analyte prior to the analyte sample injection. Although it is preferred to use a vertically-oriented coil, it is not essential and other configurations are possible. The flow cell conduit houses at least two sensing regions, a first sensing region having one or more ligands immobilized on its surface and a second sensing region free of ligand. A first fluid sample comprising a reference material (e.g. sucrose) of sufficient molecular weight and concentration to elicit a bulk refractive index response is injected into the flow channel conduit under conditions sufficient to cause the reference material to undergo a dispersion event in route to the flow cell thereby producing a concentration gradient. […] The bulk refractive index response of the reference material is recorded at the second sensing surface as the first fluid sample flows continuously through the flow cell thereby generating a standard curve. The standard curve provides an internal standard which acts as a witness to the particular injection conditions of that assay. The standard curve is then fitted to the dispersion model (Equations 2 and 3 described below) to calculate a reference diffusion coefficient. […]
In brief, the universal calibration function was determined by measuring the bulk refractive index response of eight different compounds of varying molecular (Mr) under twenty-seven experimental dispersion conditions. […] An apparent diffusion coefficient (D′) was obtained for the eight compounds by fitting the dispersion model defined by Equations 2 and 3 (set forth below) to each measured bulk refractive index response curve. […]

Regarding `CC(=O)Nc1nnc(S(N)(=O)=O)s1` [Acetazolamide, acetazolamide], the “Dapp (apparent / effective diffusion coefficient)” value is recorded as 9.67E−10 m^2s^−1.
Take `NS(=O)(=O)c1ccc(C(=O)O)cc1` [CBS, 4-carboxybenzenesulfonamide]: the “Dapp (apparent / effective diffusion coefficient)” value came out at 1.01E−09 m^2s^−1.
Turning to `NS(=O)(=O)c1cc(C(=O)O)c(NCc2ccco2)cc1Cl` [Furosemide, furosemide], the “Dapp (apparent / effective diffusion coefficient)” value is 8.29E−10 m^2s^−1.
